From article PMC7958136, “ANT1 Activation and Inhibition Patterns Support the Fatty Acid Cycling Mechanism for Proton Transport” (International Journal of Molecular Sciences, 2021)
Read-outs that look alike come from different tables or passages of the source.

Target: T1, recombinant murine ANT1 (mANT1; adenine nucleotide translocase 1) (Mus musculus, UniProt P48962)
T1 construct: gene Slc25a4
T1 sequence (P48962 2-298): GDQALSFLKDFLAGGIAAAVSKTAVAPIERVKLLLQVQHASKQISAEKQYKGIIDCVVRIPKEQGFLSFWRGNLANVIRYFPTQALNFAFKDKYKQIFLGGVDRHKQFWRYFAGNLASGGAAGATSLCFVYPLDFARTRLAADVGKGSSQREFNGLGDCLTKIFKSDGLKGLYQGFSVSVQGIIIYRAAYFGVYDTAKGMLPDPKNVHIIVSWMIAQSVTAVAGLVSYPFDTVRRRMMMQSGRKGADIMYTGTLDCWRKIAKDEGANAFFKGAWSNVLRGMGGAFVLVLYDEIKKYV
Assay: inhibition of fatty-acid-activated proton conductance, planar lipid bilayer with reconstituted ANT1
Format: biochemical

Row | SMILES | EC50 (read-out: EC50) | EC50
1 | Nc1ncnc2c1ncn2[C@@H]1O[C@H](COP(=O)(O)OP(=O)(O)O)[C@@H](O)[C@H]1O [ADP] | 1.31 ± 0.537 mM | –
2 | Nc1ncnc2c1ncn2[C@@H]1O[C@H](COP(=O)(O)O)[C@@H](O)[C@H]1O [AMP] | 2.66 ± 0.817 mM | –
3 | Nc1ncnc2c1ncn2[C@@H]1O[C@H](COP(=O)(O)OP(=O)(O)OP(=O)(O)O)[C@@H](O)[C@H]1O [ATP] | 0.25 ± 0.034 mM | –
4 | Nc1nc2c(ncn2[C@@H]2O[C@H](COP(=O)(O)OP(=O)(O)O)[C@@H](O)[C@H]2O)c(=O)[nH]1 [GDP] | 5.41 ± 2.01 mM | –
5 | Nc1nc2c(ncn2[C@@H]2O[C@H](COP(=O)(O)OP(=O)(O)OP(=O)(O)O)[C@@H](O)[C@H]2O)c(=O)[nH]1 [GTP] | 3.32 ± 0.093 mM | –
6 | CO[C@H](C/C=C\C=C\CC/C=C/C[C@H](C)/C=C/C(=C\C(=O)O)CC(=O)O)/C(C)=C\C=C(/C)C(=O)O [bongkrekic acid] | – | 0.0323 ± 0.0114 mM
